Test results: patent US20260009085A1, “METHODS AND COMPOSITIONS FOR THE DIAGNOSIS AND TREATMENT OF CANCER” (Chengdu Anticancer Bioscience, Ltd., priority 2023, published 2026)

Key:
[1] = test system: RPE-MYC; assay: Model cell screen: CPPC complex localization and cell death, RPE-MYC; assay type: cell-based, human
Method: (§1) In the model screening cell lines, there was an indistinguishable threshold concentration of approximately 20 nM, which was required to show disruption of the CPPC complex by IHC at the spindle midzone and equatorial cortex of anaphase cells, indicating a failure in CPPC relocation. This similarity in the threshold effective concentration for target inhibition is, therefore, not influenced by overexpression of MYC. […] Similar data with other MYC-SL compounds were observed.

[2] = test system: panel of 98 human cancer cell lines; assay: Concentration-response in panel of 98 human cancer cell lines with MYC/MKLP2 biomarker statistical analysis (AUC, EC50, IC50, Emax, h); assay type: cell-based
Method: For passaging of cell lines prior to a […] (MTT) assay, cells were routinely split when reaching mid-log phase and not allowed to progress to confluence. For the determination of cytotoxicity, cells were plated in 96-well plates at 4,000 cells per well in a volume of 100 μL and cultivated for 15 to 24 hours to reach 20-30% confluence. Cells on the plate were then exposed in triplicate to test compounds at concentrations ranging from 0.06 nM to 10 μM by using 3-fold serial dilutions or a concentration range from 5 nM to 10 μM using 2-fold serial dilutions. Cells exposed to vehicle (0.1% DMSO) were used as a negative control. Three days after initiation of the treatment, 20 μL of MTT (stock solution 5 mg/mL) was added to each well before incubation at 37° C. for another 3-4 hours. The medium was then aspirated with a microplate washer (BioTek ELX50) before 50 μL of DMSO was added to each well. After incubation with shaking for 10 minutes, the 96-well plate was analyzed with a microplate reader (BioTek ELX808iu) at a wavelength of 570 nm. The relative cell number was calculated as (A570^Compound/A570^DMSO)×100%. […] Statistical analysis was performed in GraphPad Prism 8.0.2. Error bars were presented as mean±1 standard deviation.
The CellTiter-Glo® (CTG) assay determines levels of ATP, and therefore the metabolic health of cell grown in culture. […] Wells containing medium without cells were used as a baseline control to obtain a value for background luminescence. […] 150 μL of the mixture was transferred to a white 96-well microplate (Falcon, Cat. #353296) and the luminescence signal was recorded by a microplate reader (Tecan Spark).
To develop a comparative metric reflecting the level of MYC and/or MKLP2 in a given cell line, the signal intensity of the MYC and MKLP2 protein bands from immunoblot analysis were normalized to the intensity of the housekeeping protein β-ACTIN. […] Whole cell MYC and MKLP2 proteins were quantified in a panel of 98 human cancer cell lines, see Table 4, below. […]

[3] = test system: RPE-NEO; assay: Model cell screen: CPPC complex localization and cell death, RPE-NEO; assay type: cell-based, human
Method: as §1

[4] = IHC at spindle midzone and equatorial cortex of anaphase cells

SMILES: CNC(=O)c1cc(OC)cc(Oc2ncccc2-c2ccnc(C)c2)c1 [LG157]
- cell death [1]: extensive cell death occurred in RPE-MYC
- threshold concentration required to show disruption of the CPPC complex [1, 4]: approximately 20 nM
- association of oncogenic alterations (TP53, RB, PTEN, RAS, BRAF, PI3K) with response ([2]; 89 of the 98 cell lines): no evidence was found that these alterations were associated with either sensitivity or resistance
- relation of MKLP2 protein level to response ([2]; 98 cell lines): lower protein levels of MKLP2, but not high, predicted a favorable response
- relation of MYC abundance to sensitivity ([2]; 98 cell lines): the abundance of MYC in the human cancer cell lines positively relates to sensitivity
- cell death [3]: not RPE-NEO cells
- threshold concentration required to show disruption of the CPPC complex [3, 4]: approximately 20 nM
